Residues, ends and D or L forms follow the SMILES beside them.

For assay [1], the target named is T1, interaction of platelets (GPIb) with vWF-A1 domain (Homo sapiens, UniProt P07359).
T1 construct: it is advantageous to use whole platelets instead of the isolated GpIb protein; host or cells: human platelets from platelet concentrate
Nature of the assay: platelet adhesion to wells coated with vWF-A1 (calcein-AM labelled platelets, Acumen laser-scanning cytometry). In kind it is cell-based. On the procedure: 25 μl of the TBS-vWF-A1-Coating/Blocking-Puffer 1× (containing 15 μg/ml vWF-A1) is added sterile per well using a Multidrop from Labsystems. Plates were incubated and stored minimally overnight up to one week. Storage is at 4 C, sterile and protected against evaporation.
One hour before test substance addition, the wells of the plates were blocked with BSA. Before the wells were washed with 1×TBS-Washbuffer, 60 μl/Well using an ELx405 Microplate Washer (96 wells) from Biotek.
Immediately after (wells should not dry out) the wells were blocked 5% BSA-Fatty acid free 40 μl/Well using a Multidrop from Labsystems. Wells were incubated 1-2 hours until test substances were added.
Sealed plates delivered from test substance management were stored at −20° C. until use. Test substances were dissolved in 100% DMSO at 3 mM. Test substances were diluted in TBS-Adhaesionbuffer 1× till 10 μM final concentration. Diluted test substance were stored at RT and used within hours. HTS occurred in single-point determination.
Surplus of BSA is washed away by washing the wells with 1×TBS-Washbuffer, 60 μl/Well using an ELx405 Microplate Washer (96 wells) from Biotek, followed by the addition of 10 μl test substance solution or high and low control using Cybio robotics. Plates were not allowed to dry out.
LOW-Control: no vWF-A1-Coating, just BSA-treated plates for blocking HIGH-Control: vWF-A1+ Standard (non-toxic GPIb inhibitor) vWF-A1+ and OS-1 10 μM
The total time needed between removing the platelets from the platelet concentrate, as obtained from the German Red Cross and disoensing the platelets into the multiwall plates should be between 45-60 mins.
The bag containing the platelet concentrate, as obtained from the German Red Cross, is removed from the agitation table (see 1.2; cells) and is put in a sterile flow cabinet on an absorbing towel to absorb any spills. The tubing, tube clamps and scissors are sterilized with 70% ethanol in water.
The tubing from the bag with platelet concentrate is clamped and the tubing is cut. The clamp is released and the first ca. 10 ml concentrate that comes out of the bag is discarded. 30 ml concentrate is poured into n 50 ml BD-Falcon tube made of polypropylene.
Next, 2.5 μl PGE-stock (0.5 mg/ml) is added to an empty 12 ml round-bottom tube made of polypropylene (Greiner). To this 5 ml platelet concentrate is added (final concentration of PGE1 is 0.25 μg/ml) and the tube is gently mixed and incubated 5 min at RT. […]

The test system of assay [2] is interaction of platelets with collagen 1 (rat tail). Nature of the assay: platelet-collagen 1 interaction assay (counter-screen). The note with it: test substances at 10 μM. In kind it is cell-based, human. Here is the method:
For this assay essentially the same set up was used as described above for testing the adhesion of platelets onto A1-coated plates.
To coat wells with rat tail collagen1, a stock solution consisting of 200 μg/ml Collagen I (rat tail, SIGMA (C8897)) in 0.01 M acetic acid was prepared. This solution was diluted with 0.01 M acetic acid to 10 μg/ml and 25 μl was added to a 384 well. Plates were incubated overnight at 4 C for binding of collagen1 to the well. One hour before test substance addition, the wells of the plates were blocked with BSA as described above. Also the preparation, labeling and dispension of platelets was as described for vWF-A1. For the platelet adhesion to collagen I, the concentration of MgCl2 was increased to 4 mM and the number of platelets added per well to 50 000 platelets. Using these conditions, the assay was able to detect the interaction of specific inhibitors with good statistical parameters, see FIG. 11.
A set of 6 plates were tested under automated conditions. For all plates a Z′ value above 0.5 was obtained with a S/B of 20 or more.
A training set composed 69 test substances in total was used to validate this assay. […]
In general terms: A counterscreen serves to expose hits that act by an unwanted route or on another target.

T1 sequence (P07359 17-652): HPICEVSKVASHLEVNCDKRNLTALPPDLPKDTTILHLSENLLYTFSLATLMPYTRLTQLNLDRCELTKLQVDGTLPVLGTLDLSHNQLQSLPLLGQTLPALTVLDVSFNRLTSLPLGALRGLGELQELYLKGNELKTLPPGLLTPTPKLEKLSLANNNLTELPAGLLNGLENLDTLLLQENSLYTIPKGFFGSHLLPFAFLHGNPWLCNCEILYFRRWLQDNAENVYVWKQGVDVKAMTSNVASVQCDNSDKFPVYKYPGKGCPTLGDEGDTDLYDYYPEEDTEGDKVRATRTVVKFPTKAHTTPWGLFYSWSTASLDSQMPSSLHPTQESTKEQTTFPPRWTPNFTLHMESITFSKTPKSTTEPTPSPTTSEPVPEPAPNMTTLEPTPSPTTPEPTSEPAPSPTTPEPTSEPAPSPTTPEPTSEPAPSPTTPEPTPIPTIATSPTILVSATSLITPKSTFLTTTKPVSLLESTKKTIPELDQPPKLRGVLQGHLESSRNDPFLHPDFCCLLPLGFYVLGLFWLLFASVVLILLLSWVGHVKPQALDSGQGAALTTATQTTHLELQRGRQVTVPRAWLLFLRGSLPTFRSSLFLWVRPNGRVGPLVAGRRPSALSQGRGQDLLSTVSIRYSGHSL
T1 sequence (P13224 26-206 partner): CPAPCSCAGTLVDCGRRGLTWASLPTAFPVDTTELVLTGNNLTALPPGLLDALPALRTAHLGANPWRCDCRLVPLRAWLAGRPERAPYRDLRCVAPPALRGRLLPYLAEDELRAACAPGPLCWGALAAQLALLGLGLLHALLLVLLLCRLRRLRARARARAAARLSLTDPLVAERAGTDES
T1 sequence (P14770 17-177 partner): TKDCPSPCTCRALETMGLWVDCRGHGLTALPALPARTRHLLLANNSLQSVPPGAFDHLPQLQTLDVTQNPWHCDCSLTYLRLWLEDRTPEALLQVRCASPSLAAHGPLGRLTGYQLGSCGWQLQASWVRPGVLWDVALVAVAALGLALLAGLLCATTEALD

As a reminder, the inhibition is how much of the control response was suppressed. For `CSCC[C@@H]1NC(=O)[C@H](CCCNC(=N)N)NC(=O)[C@H](CCC(=O)O)NC(=O)[C@H]([C@@H](C)O)NC(=O)[C@@H](N)CSSC[C@@H](C(=O)O)NC(=O)[C@H](CC(C)C)NC(=O)[C@H](CC(N)=O)NC(=O)[C@H](Cc2c[nH]cn2)NC(=O)[C@H](CC(C)C)NC(=O)[C@H](C)NC1=O` [OS-1] (HELM PEPTIDE1{C.T.E.R.M.A.L.H.N.L.C}$PEPTIDE1,PEPTIDE1,1:R3-11:R3$$$V2.0; N-terminus and C-terminus assumed), in assay [1] (OS-1 at 10 μM, optimized washer settings, FIG. 6), the inhibition at 10 µM was roughly 90%. In assay [1] (all plates of the run, FIG. 9), the “inhibition by OS-1 during fully automated run of 30 plates” value was “high inhibition”. For the same molecule, the “inhibition of platelet attachment to vWF-A1 (in words)” value in assay [1] (optimized washer program, FIG. 6 legend) is “almost complete inhibition”. The “effect of increasing plate storage times on inhibition” value in assay [1] (prolonged storage at room temperature, FIG. 8) is recorded as “almost constant values”. Further, in assay [2], the “inhibition of the platelet interaction with collagen” value is listed as “did not inhibit”.

Source of the values: patent US20130189714A1, “METHOD FOR THE DETECTION AND/OR QUANTIFICATION OF THE INTERACTION OF PLATELETS WITH INTERACTION PARTNERS” (SANOFI, priority 2010, published 2013).
